Patent US20190209514A1, “Treatment of Bladder Cancer by Local Administration of Taxane Particles” (CRITITECH, INC., priority 2018, published 2019)
Several values for one entry are separate records, joined by “and”; a condition that tells them apart may be missing. Identical values can stand only once. Entries after “also recorded” stand apart in the source; their conditions may differ. Marks after values point to notes of the source that are not given here.

Experiments:
[1] = tested on: UM-UC-3 bladder cancer cell line (ATCC-CRL-1749) tumors; experiment: Human bladder cancer (UM-UC-3) mouse xenograft study, tumor volume; format: in vivo, Hsd:Athymic Nude-Foxn1nu nude mice
Experimental: Tumor volume was determined with calipers. […] Animals were weighed 2×/week.
At day 18 after tumor implant, when average tumor size was between 50-325 mm^3, animals were sorted into five groups with equal average tumor sizes and were treated as shown in Table 8 below.
The second treatments (2nd cycle) occurred 7 days following first treatment (1st cycle) and third treatments (3rd cycle) occurred 14 days following the first treatment. The docetaxel solution IV was administered via the tail vein.
The test formulations were prepared as follows: • Vehicle (Control): Diluted 1 ml of the 1% Polysorbate 80/8% Ethanol in normal saline (0.9% Sodium Chloride for Injection) reconstitution solution with 1.5 mL of normal saline (0.9% Sodium Chloride for Injection, USP). […] Vigorously hand shook the vial with inversions for 1 minute. […] Vortexed to mix.
Tumor volumes were determined 2×/week for the duration of the study (61 days). The results of the study are shown in FIG. 4, FIG. 5, FIG. 6, FIG. 7, FIG. 8, FIG. 9, FIG. 10, FIG. 11, FIG. 12 & FIG. 13. […] These observations are also reflected in FIG. 5, FIG. 6, FIG. 7, FIG. 8, FIG. 9, FIG. 12 & FIG. 13.

[2] = tested on: UM-UC-3 bladder cancer cell line (ATCC-CRL-1749) tumors; experiment: Xenograft study: histology (H&E) and immunohistochemistry of tumor site tissue; format: in vivo, Hsd:Athymic Nude-Foxn1nu nude mice
[3] = IV docetaxel 3 cycles; of 7 tumors measured; day of death or euthanasia
[4] = Particle size analysis (light obscuration / laser diffraction); format: physicochemical
Source text: The particle size of the taxane particles can be determined by a particle size analyzer instrument and the measurement is expressed as the mean diameter based on a number distribution (number). A suitable particle size analyzer instrument is one which employs the analytical technique of light obscuration, also referred to as photozone or single particle optical sensing (SPOS). A suitable light obscuration particle size analyzer instrument is the ACCUSIZER, such as the ACCUSIZER 780 SIS, available from Particle Sizing Systems, Port Richey, Fla. Another suitable particle size analyzer instrument is one which employs laser diffraction, such as the Shimadzu SALD-7101.
Particle size was analyzed by both light obscuration and laser diffraction methods. An Particle Sizing Systems AccuSizer 780 SIS system was used for the light obscuration method and Shimadzu SALD-7101 was used for the laser diffraction method.
The vials were vortexed for approximately 10 seconds and then sonicated in a sonic bath approximately 1 minute.
The vial was vortexed for approximately 10 seconds and then sonicated in a sonic bath for approximately 2 minutes. This suspension was used for laser diffraction analysis. Unused suspension was poured into a 125 mL particle-free plastic bottle, which was then filled to approximately 100 mL with filtered dispersant. The suspension was vortex for approximately 10 seconds and then sonicated in the sonic bath for approximately 2 minutes. This diluted suspension was used for light obscuration analysis.
A background test was first performed prior to analyzing particles on the AccuSizer 780 SIS. A new particle-free plastic bottle was filled with blank suspension solution by pumping from a reservoir, using a peristaltic pump, through a 0.22 μm Millipore filter and into the bottle. A background analysis was run to ensure the particle/mL count was below 100 particles/mL. […] Once the analysis was completed, the background data was removed and any measurement with less than four counts was removed.
To analyze particles on SALD-7101 using a batch cell, the analysis was started by choosing Manual Measurement. The refractive index was set as 1.5 to 1.7. The batch cell was filled with filtered dispersant just past the etched line. The blank measurement was ran. […] The measurements were executed, and the resulting graph with the highest level of confidence was selected; background was automatically accounted for.

[5] = BET specific surface area (SSA); format: physicochemical
Experimental: As used herein, the “specific surface area” (SSA) is the total surface area of the taxane particle per unit of taxane mass as measured by the Brunauer-Emmett-Teller (“BET”) isotherm by the following method: a known mass between 200 and 300 mg of the analyte is added to a 30 mL sample tube. […] The automated test is then carried out using the BETWIN® software package and the surface area of each sample is subsequently calculated. As will be understood by those of skill in the art, the “taxane particles” can include both agglomerated taxane particles and non-agglomerated taxane particles; since the SSA is determined on a per gram basis it takes into account both the larger agglomerated and smaller non-agglomerated taxane particles in the composition. The agglomerated taxane particles are defined herein as individual taxane particles that are formed by the agglomeration of smaller particles which fuse together forming the larger individual taxane particles, all of which occurs during the processing of the taxane particles. […]
A known mass between 200 and 300 mg of the analyte was added to a 30 mL sample tube. […] The automated test was then carried out using the BETWIN® software package and the surface area of each sample was subsequently calculated.

[6] = Bulk density (not tapped); format: physicochemical
Experimental: As used herein, the “specific surface area” (SSA) is the total surface area of the taxane particle per unit of taxane mass as measured by the Brunauer-Emmett-Teller (“BET”) isotherm by the following method: a known mass between 200 and 300 mg of the analyte is added to a 30 mL sample tube. […] The automated test is then carried out using the BETWIN® software package and the surface area of each sample is subsequently calculated. As will be understood by those of skill in the art, the “taxane particles” can include both agglomerated taxane particles and non-agglomerated taxane particles; since the SSA is determined on a per gram basis it takes into account both the larger agglomerated and smaller non-agglomerated taxane particles in the composition. The agglomerated taxane particles are defined herein as individual taxane particles that are formed by the agglomeration of smaller particles which fuse together forming the larger individual taxane particles, all of which occurs during the processing of the taxane particles. The BET specific surface area test procedure is a compendial method included in both the United States Pharmaceopeia and the European Pharmaceopeia. […]
The mass of the drug was measured to a nearest 0.1 mg, the volume was determined to the nearest 0.1 mL and the density calculated.

[7] = Paclitaxel dissolution study, methanol/water 50/50, USP Apparatus II; format: physicochemical; details: methanol/water 50/50 (v/v), 37° C., pH 7, paddle 75 rpm
Experimental: Beads were transferred to a stainless steel mesh container and placed in the dissolution bath containing methanol/water 50/50 (v/v) media at 37° C., pH 7, and a USP Apparatus II (Paddle), operating at 75 rpm. […] Absorbance values of the samples were compared to those of standard solutions prepared in dissolution media to determine the amount of material dissolved. […] Absorbance values of the samples were compared to those of standard solutions prepared in dissolution media to determine the amount of material dissolved.
(§1) Beads were transferred to a stainless steel mesh container and placed in the dissolution bath containing methanol/water 50/50 (v/v) media at 37° C., pH 7, and a USP Apparatus II (Paddle), operating at 75 rpm. At 10, 20, 30, 60, and 90 minutes, a 5 mL aliquot was removed, filtered through a 0.22 μm filter and analyzed on a U(V/V)is spectrophotometer at 227 nm. Absorbance values of the samples were compared to those of standard solutions prepared in dissolution media to determine the amount of material dissolved.

[8] = Docetaxel dissolution study, methanol/water 15/85, USP Apparatus II; format: physicochemical; details: for Docetaxel Dissolution time course: methanol/water 15/85
Experimental: as §1, with “The procedures used to determine the dissolution rates are as follows. […] Beads” for “Beads”, “UV/VIS” for “U(V/V)is”, “dissolved. […] At 5, 15, 30, 60, 120 and 225 minutes, a 5 mL aliquot was removed, filtered through a 0.22 μm filter, and analyzed on a UV/VIS spectrophotometer at 232 nm. Absorbance values of the samples were compared to those of standard solutions prepared in dissolution media to determine the amount of material dissolved.” for “dissolved.”
At 5, 15, 30, 60, 120 and 225 minutes, a 5 mL aliquot was removed, filtered through a 0.22 μm filter, and analyzed on a UV/VIS spectrophotometer at 232 nm. Absorbance values of the samples were compared to those of standard solutions prepared in dissolution media to determine the amount of material dissolved.

[9] = IV Docetaxel 3 cycles, 2 animals

Question: Which results are given for `CC(=O)O[C@@]12CO[C@@H]1C[C@H](O)[C@@]1(C)C(=O)[C@H](O)C3=C(C)[C@@H](OC(=O)[C@H](O)[C@@H](NC(=O)OC(C)(C)C)c4ccccc4)C[C@@](O)([C@@H](OC(=O)c4ccccc4)[C@H]21)C3(C)C` [Docetaxel, docetaxel]?
Answer: tumor volume ([1]; Docetaxel Solution 30 mg/kg IV, 3 weekly cycles, to Day 61): Tumor volumes decreased initially; also recorded: subsequently increased; also recorded: somewhat effective at treating small tumors, but not very effective in treating large tumors; Necropsy volume (mm^3), per animal ([1]; IV Docetaxel 3 cycles (B1, B3)): 2872 mm^3 and 1652 mm^3; histology general observations (H&E) ([2]; Docetaxel Solution IV 3 cycles): many viable appearing tumor masses with some macrophage and occasional lymphocytic response along with some tumor necrosis; Maximum tumor size on slide / size of viable nodules (mm), per animal ([2]; IV Docetaxel 3 cycles (cases B1, B3)): 11 mm and 15 mm; Macrophage infiltrate density (CD68): animals graded Mild [2, 9]: 2; Maximum size of viable invasive carcinoma on the slide: animals with >10 mm [2, 9]: 2*; Percentage of tumor showing necrosis: animals with 11-50% [2, 9]: 1; Percentage of tumor showing necrosis: animals with 50-90% [2, 9]: 1; tumors with docetaxel levels above the limit of quantitation (1 ng/g) [3]: 1

Question: With `CC(=O)O[C@H]1C(=O)[C@@]2(C)[C@H]([C@H](OC(=O)c3ccccc3)[C@]3(O)C[C@H](OC(=O)[C@H](O)[C@@H](NC(=O)c4ccccc4)c4ccccc4)C(C)=C1C3(C)C)[C@]1(OC(C)=O)CO[C@@H]1C[C@@H]2O` [Paclitaxel Raw Material, paclitaxel] as the compound, how does the “Number Mean (um)” value [4] read?
Answer: 1.16 um

Question: And the “Volume Mean (um)” value [4]?
Answer: 1.29 um

Question: And the “Surface Area (m^2/g)” value ([5]; BET)?
Answer: 10.4 m^2/g

Question: And the BET surface area ([5]; Example 1 results text)?
Answer: 7.25 m^2/g

Question: And the “Bulk Density” value [6]?
Answer: 0.26 g/mL

Question: What about the “Dissolution (30 min)” value [7] of the same compound?
Answer: 18%

Question: Which “Number Mean (um)” value [4] does the source give for `CC(=O)O[C@@]12CO[C@@H]1C[C@H](O)[C@@]1(C)C(=O)[C@H](O)C3=C(C)[C@@H](OC(=O)[C@H](O)[C@@H](NC(=O)OC(C)(C)C)c4ccccc4)C[C@@](O)([C@@H](OC(=O)c4ccccc4)[C@H]21)C3(C)C` [Docetaxel Raw Material, docetaxel] here?
Answer: 1.58 um

Question: What about the “Volume Mean (um)” value [4] of the same compound?
Answer: 5.05 um

Question: And the “Docetaxel Dissolution time course” value ([8]; 0 minutes)?
Answer: 0.0%

Question: And the “Docetaxel Dissolution time course” value ([8]; 5 minutes)?
Answer: 3.2%

Question: And the “Docetaxel Dissolution time course” value ([8]; 15 minutes)?
Answer: 6.9%

Question: What about the “Docetaxel Dissolution time course” value ([8]; 30 minutes) of the same compound?
Answer: 11.2%

Question: What about the “Docetaxel Dissolution time course” value ([8]; 60 minutes) of the same compound?
Answer: 16.4%

Question: And the “Docetaxel Dissolution time course” value ([8]; 120 minutes)?
Answer: 22.4%

Question: And the “Docetaxel Dissolution time course” value ([8]; 225 minutes)?
Answer: 26.8%

Question: And the “Dissolution (30 min)” value ([8]; docetaxel, methanol/water 15/85 (v/v), 37° C., pH 7, paddle 75 rpm, 30 min)?
Answer: 11%
